Test results from US8394969B2, “Cyclic benzimidazole derivatives useful as anti-diabetic agents” (Merck Sharp & Dohme Corp., priority 2008, dated 2013).
pEC50: −log10 of the molar value. Where a name gives a salt, the structure may show the parent alone.

These compounds were tested against recombinant human AMPK complex 1 (containing α1β1γ1) (Homo sapiens, UniProt Q13131+Q9Y478) (assay: […] (in vitro AMPK activation assay)). Details: read-out: % Maximum AMP Activation of human AMPK Complex 1, recombinant human AMPK complex 1 (α1β1γ1); basal activity subtracted.
recombinant human AMPK complex 1 (containing α1β1γ1), sequence (Q13131 whole entry): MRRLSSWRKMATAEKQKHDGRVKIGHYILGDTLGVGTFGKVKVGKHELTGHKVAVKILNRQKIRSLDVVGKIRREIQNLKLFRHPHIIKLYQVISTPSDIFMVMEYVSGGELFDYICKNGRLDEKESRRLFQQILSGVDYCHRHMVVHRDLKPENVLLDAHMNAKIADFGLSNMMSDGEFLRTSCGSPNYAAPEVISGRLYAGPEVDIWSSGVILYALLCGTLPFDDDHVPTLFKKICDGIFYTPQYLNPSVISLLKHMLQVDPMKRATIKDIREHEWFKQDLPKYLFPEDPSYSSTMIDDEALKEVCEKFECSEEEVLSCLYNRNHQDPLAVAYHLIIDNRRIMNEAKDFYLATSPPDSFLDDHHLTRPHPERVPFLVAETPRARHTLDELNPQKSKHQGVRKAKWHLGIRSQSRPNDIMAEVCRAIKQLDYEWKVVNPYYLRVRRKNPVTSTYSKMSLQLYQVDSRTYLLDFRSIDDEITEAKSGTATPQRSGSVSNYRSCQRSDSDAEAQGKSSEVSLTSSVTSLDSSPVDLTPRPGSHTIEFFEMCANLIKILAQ
recombinant human AMPK complex 1 (containing α1β1γ1), sequence (Q9Y478 whole entry): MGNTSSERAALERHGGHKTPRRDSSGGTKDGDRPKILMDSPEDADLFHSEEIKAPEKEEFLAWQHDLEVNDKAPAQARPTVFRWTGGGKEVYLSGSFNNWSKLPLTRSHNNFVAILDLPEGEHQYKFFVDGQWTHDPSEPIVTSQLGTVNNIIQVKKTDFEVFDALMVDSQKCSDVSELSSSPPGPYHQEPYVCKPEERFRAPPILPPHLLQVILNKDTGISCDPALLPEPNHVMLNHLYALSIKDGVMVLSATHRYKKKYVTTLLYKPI
recombinant human AMPK complex 1 (containing α1β1γ1), sequence (P54619 whole entry partner): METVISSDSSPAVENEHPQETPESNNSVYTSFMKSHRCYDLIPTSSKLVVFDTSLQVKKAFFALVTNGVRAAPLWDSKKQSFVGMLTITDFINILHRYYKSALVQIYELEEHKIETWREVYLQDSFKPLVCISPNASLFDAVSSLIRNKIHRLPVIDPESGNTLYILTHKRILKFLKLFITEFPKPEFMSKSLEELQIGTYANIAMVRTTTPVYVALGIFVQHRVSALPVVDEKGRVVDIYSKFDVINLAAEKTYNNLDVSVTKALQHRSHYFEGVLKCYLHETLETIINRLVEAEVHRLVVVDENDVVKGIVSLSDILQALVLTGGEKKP
Assay type: biochemical
`COc1ccc(-c2cc3nc(Oc4ccc(C)c(C(=O)O)c4)[nH]c3cc2Cl)cc1` [Example 345, Ammonium 5-{[6-chloro-5-(4-methoxyphenyl)-1H-benzimidazol-2-yl]oxy}-2-methylbenzoate] gave an Emax of over 80%.

Same assay, conditions: recombinant human AMPK complex 1 (α1β1γ1); basal activity subtracted; read-out: % Maximum AMP Activation of human AMPK Complex 1
Work on `Cc1ccc(Oc2nc3cc(-c4ccc5c(ccn5CC5CC5)c4)c(Cl)cc3[nH]2)cc1C(=O)O` [Example 252, 5-[6-Chloro-5-(1-cyclopropylmethyl-1H-indol-5-yl)-1H-benzoimidazol-2-yloxy]-2-methyl-benzoic acid] yielded an Emax of over 80%. Compound `Cc1ccc(Oc2nc3cc(-c4cccc(CO)n4)c(Cl)cc3[nH]2)cc1C(=O)O` [Example 332, 2-(3-carboxy-4-methylphenoxy)-6-chloro-5-[6-(hydroxymethyl)pyridin-2-yl]-1H-3,1-benzimidazol-3-ium formate] has an Emax of over 80%. With `O=C(O)c1ccc(Oc2nc3cc(-c4ccc(-c5ccccc5)cc4)c(Cl)cc3[nH]2)cc1O` [Example 32, 4-(5-Biphenyl-4-yl-6-chloro-1H-benzoimidazol-2-yloxy)-2-hydroxy-benzoic acid] the Emax was over 80%. `Clc1cc2[nH]c(Oc3cccc(-c4nn[nH]n4)c3)nc2cc1-c1ccc(-c2ccccc2)cc1` [Example 33, 5-Biphenyl-4-yl-6-chloro-2-[3-(2H-tetrazol-5-yl)-phenoxy]-1H-benzoimidazol] showed an Emax of over 80%. In the case of `Cc1ccc(Oc2nc3cc(-c4cc5ccccc5o4)c(Cl)cc3[nH]2)cc1C(=O)O` [Example 356, 5-(5-Benzofuran-2-yl-6-chloro-1H-benzoimidazol-2-yloxy)-2-methyl-benzoic acid], the Emax was over 80%. With `O=C(O)C1(c2ccc(Oc3nc4cc(-c5ccc(-c6ccccc6)cc5)c(Cl)cc4[nH]3)cc2)CC1` [Example 7, 1-[4-(5-Biphenyl-4-yl-6-chloro-1H-benzoimidazol-2-yloxy)-phenyl]-cyclopropanecarboxylic acid] the Emax was over 80%. `Cc1cc(Oc2nc3cc(-c4ccc(C(C)(C)O)cc4)c(Cl)cc3[nH]2)cc(C(=O)O)c1C` [Example 316, 5-{6-Chloro-5-[4-(1-hydroxy-1-methyl-ethyl)-phenyl]-1H-benzoimidazol-2-yloxy}-2,3-dimethyl-benzoic acid] was tested, and the Emax was over 80%. In the case of `Cc1ccc(Oc2nc3cc(-c4ccc5c(c4)n(C)c(=O)n5C)c(Cl)cc3[nH]2)cc1C(=O)O` [Example 235, 5-(6-Chloro-1′,3′-dimethyl-2′-oxo-2′,3′-dihydro-1H,1′H-[5,5′]bibenzoimidazolyl-2-yloxy)-2-methyl-benzoic acid], the Emax was over 80%. `O=C(O)c1cccc(Sc2nc3cc(-c4ccc(-c5ccccc5)cc4)c(Cl)cc3[nH]2)c1` [Example 64, 3-[(5-biphenyl-4-yl-6-chloro-1H-benizmidazol-2-yl)thio]benzoic acid] was tested, and the Emax was over 80%. In the case of `Cc1ccc(Oc2nc3cc(-c4ccc5nncn5c4)c(Cl)cc3[nH]2)cc1C(=O)O` [Example 152, 5-(6-Chloro-5-[1,2,4]triazolo[4,3-a]pyridin-6-yl-1H-benzoimidazol-2-yloxy)-2-methyl-benzoic acid], the Emax was over 80%. `CN1CCOc2cc(-c3cc4nc(Oc5ccc(CC(=O)O)cc5)[nH]c4cc3Cl)ccc21` [Example 244, {4-[6-Chloro-5-(4-methyl-3,4-dihydro-2H-benzo[1,4]oxazin-7-yl)-1H-benzoimidazol-2-yloxy]-phenyl}-acetic acid] gave an Emax of over 80%. `Cc1ccc(Oc2nc3cc(C#Cc4ccc(-c5cscn5)cc4)c(Cl)cc3[nH]2)cc1C(=O)O` [Example 83, 5-[6-Chloro-5-(4-thiazol-4-yl-phenylethynyl)-1H-benzoimidazol-2-yloxy]-2-methyl-benzoic acid] was tested, and the Emax was over 80%. `CS(=O)(=O)NC(=O)c1cccc(Oc2nc3cc(-c4ccc(-c5ccccc5)cc4)c(Cl)cc3[nH]2)c1` [Example 225, N-[3-(5-Biphenyl-4-yl-6-chloro-1H-benzoimidazol-2-yloxy)-benzoyl]-methanesulfonamide] showed an Emax of over 80%. In the case of `Cn1ccc2cc(-c3cc4nc(Oc5ccc(Cl)c(C(=O)O)c5)[nH]c4cc3Cl)ccc21` [Example 217, 2-Chloro-5-[6-chloro-5-(1-methyl-1H-indol-5-yl)-1H-benzoimidazol-2-yloxy]-benzoic acid], the Emax was over 80%. `COC(=O)c1ccc(C#Cc2cc3nc(Oc4ccc(C)c(C(=O)O)c4)[nH]c3cc2Cl)cc1` [Example 91, 5-[6-Chloro-5-(4-methoxycarbonyl-phenylethynyl)-1H-benzoimidazol-2-yloxy]-2-methyl-benzoic acid] was tested, and the Emax was over 80%. Work on `Cc1ccc(Oc2nc3cc(-c4ccc5[nH]c(=O)ccc5c4)c(Cl)cc3[nH]2)cc1C(=O)O` [Example 233, 5-[6-Chloro-5-(2-oxo-1,2-dihydro-quinolin-6-yl)-1H-benzoimidazol-2-yloxy]-2-methyl-benzoic acid] yielded an Emax of over 80%. `O=C(O)Cc1cc(O)cc(Oc2nc3cc(-c4ccc(-c5ccccc5)cc4)c(Cl)cc3[nH]2)c1` [Example 21, [3-(5-Biphenyl-4-yl-6-chloro-1H-benzoimidazol-2-yloxy)-5-hydroxy-phenyl]-acetic acid] gave an Emax of over 80%. For `Cc1ccc(Oc2nc3cc(-c4cncc5ccccc45)c(Cl)cc3[nH]2)cc1C(=O)O` [Example 336, 2-(3-carboxy-4-methylphenoxy)-6-chloro-5-isoquinolin-4-yl-1H-3,1-benzimidazol-3-ium formate], the Emax was over 80%. With `CC(=O)Nc1cccc(Oc2nc3cc(-c4ccc(-c5ccccc5)cc4)c(Cl)cc3[nH]2)c1` [Example 3, N-[3-(5-Biphenyl-4-yl-6-chloro-1H-benzoimidazol-2-yloxy)-phenyl]-acetamide] the Emax was over 80%. For `Cc1ccc(Oc2nc3cc(CCc4ccccc4)c(Cl)cc3[nH]2)cc1C(=O)O` [Example 51, 5-(6-Chloro-5-phenethyl-1H-benzoimidazol-2-yloxy)-2-methyl-benzoic acid], the Emax was over 80%. In the case of `COc1ccc(-c2ccc(-c3cc4nc(Oc5cc(C)c(C)c(C(=O)O)c5)[nH]c4cc3Cl)cc2)cn1` [Example 315, 5-{6-Chloro-5-[4-(6-methoxy-pyridin-3-yl)-phenyl]-1H-benzoimidazol-2-yloxy}-2,3-dimethyl-benzoic acid], the Emax was over 80%. Work on `Cc1ccc(Oc2nc3cc(-c4ccc(C(C)C)c5[nH]ccc45)c(Cl)cc3[nH]2)cc1C(=O)O` [Example 273, 5-[6-Chloro-5-(7-isopropyl-1H-indol-4-yl)-1H-benzoimidazol-2-yloxy]-2-methyl-benzoic acid] yielded an Emax of over 80%. `Cc1ccc(Oc2nc3cc(-c4ccc5ncccc5c4)c(Cl)cc3[nH]2)cc1C(=O)O` [Example 150, 2-(3-carboxy-4-methylphenoxy)-6-chloro-5-quinolin-6-yl-1H-3,1-benzimidazol-3-ium chloride] showed an Emax of over 80%. Work on `Cn1ccc2cc(-c3cc4nc(Oc5ccc(CC(=O)O)cc5)[nH]c4cc3Cl)ccc21` [Example 243, {4-[6-Chloro-5-(1-methyl-1H-indol-5-yl)-1H-benzoimidazol-2-yloxy]-phenyl}-acetic acid] yielded an Emax of over 80%. Work on `Cc1ccc(Oc2nc3cc(-c4ccc(C5CC5)c(N(C)C)c4)c(Cl)cc3[nH]2)cc1C(=O)O` [Example 267, 5-[6-Chloro-5-(4-cyclopropyl-3-dimethylamino-phenyl)-1H-benzoimidazol-2-yloxy]-2-methyl-benzoic acid] yielded an Emax of over 80%. Work on `Cc1ccc(Oc2nc3cc(-c4ccc(-c5ccccc5F)cc4)c(Cl)cc3[nH]2)cc1C(=O)O` [Example 192, 5-{[6-chloro-5-(2′-fluorobiphenyl-4-yl)-1H-benzimidazol-2-yl]oxy}-2-methylbenzoic acid] yielded an Emax of over 80%. `Cc1ccc(Oc2nc3cc(-c4ccc(C(C)N(C)C)cc4)c(Cl)cc3[nH]2)cc1C(=O)O` (stereo not drawn) [Example 292, 1-{4-[2-(3-carboxy-4-methylphenoxy)-6-chloro-1H-benzimidazol-5-yl]phenyl}-N,N-dimethylethanaminium trifluoroacetate] was tested, and the Emax was over 80%. In the case of `Cc1ccc(Oc2nc3cc(-c4ccc(-c5ccc(C#N)cc5)cc4)c(Cl)cc3[nH]2)cc1C(=O)O` [Example 103, 5-[6-Chloro-5-(4′-cyano-biphenyl-4-yl)-1H-benzoimidazol-2-yloxy]-2-methyl-benzoic acid], the Emax was over 80%. With `Cc1ccc(Oc2nc3cc(-c4ccc(C(C)(C)C#N)cc4)c(Cl)cc3[nH]2)cc1C(=O)O` [Example 239, 5-{6-Chloro-5-[4-(cyano-dimethyl-methyl)-phenyl]-1H-benzoimidazol-2-yloxy}-2-methyl-benzoic acid] the Emax was over 80%. `O=C(O)c1ccc(Oc2nc3cc(-c4ccc(-c5ccccc5)cc4)c(Cl)cc3[nH]2)cc1Cl` [Example 39, 4-(5-Biphenyl-4-yl-6-chloro-1H-benzoimidazol-2-yloxy)-2-chloro-benzoic acid] was tested, and the Emax was over 80%. With `Cc1ccc(Oc2nc3cc(-c4ccc(C5CCCCC5)cc4)c(Cl)cc3[nH]2)cc1C(=O)O` [Example 357, 5-[6-Chloro-5-(4-cyclohexyl-phenyl)-1H-benzoimidazol-2-yloxy]-2-methyl-benzoic acid] the Emax was over 80%. `O=C(O)c1cccc(Oc2nc3cc(-c4ccc(-c5ccccc5)cc4)c(Cl)cc3[nH]2)n1` [Example 214, 6-(5-Biphenyl-4-yl-6-chloro-1H-benzoimidazol-2-yloxy)-pyridine-2-carboxylic acid] was tested, and the Emax was over 80%. `O=C(O)c1cccc(Sc2nc3cc(-c4cccs4)c(Cl)cc3[nH]2)c1` [Example 65, 3-{[6-chloro-5-(2-thienyl)-1H-benzimidazol-2-yl]thio}benzoic acid] showed an Emax of over 80%.

Same assay, conditions: recombinant human AMPK complex 1 (α1β1γ1); read-out: EC50
For `Cc1ccc(Oc2nc3cc(-c4ccc(C(=O)N5CCC(O)CC5)cc4)c(Cl)cc3[nH]2)cc1C(=O)O` [Example 236, 5-{6-Chloro-5-[4-(4-hydroxy-piperidine-1-carbonyl)-phenyl]-1H-benzoimidazol-2-yloxy}-2-methyl-benzoic acid], the pEC50 was 8.00. Compound `Cc1ccc(Oc2nc3cc(-c4ccc(-c5ccc(=O)n(C)c5)cc4)c(Cl)cc3[nH]2)cc1C(=O)O` [Example 68, 5-({6-chloro-5-[4-(1-methyl-6-oxo-1,6-dihydropyridin-3-yl)phenyl]-1H-benzimidazol-2-yl}oxy)-2-methylbenzoic acid] has a pEC50 of 8.15.
